In ChEMBL document CHEMBL3400015, “Tertiary amides of Salinomycin: A new group of antibacterial agents against Bacillus anthracis and methicillin-resistant Staphylococcus epidermidis” (Bioorg Med Chem Lett, 2015):
In brackets after ≈: the same amount, converted by molar mass.

How the values were obtained:
Assay type in all cases: functional
[1] = system: Staphylococcus epidermidis; assay: Bactericidal activity against methicillin-resistant Staphylococcus epidermidis isolate 470/11 after 24 hrs; details: isolate 470/11, 24 h, read-out: MBC99.9
[2] = system: Escherichia coli; assay: Antimicrobial activity against Escherichia coli ATCC 25922 after 18 hrs by twofold serial broth dilution method; details: ATCC 25922, 18 h
[3] = system: Staphylococcus epidermidis; assay: Bactericidal activity against methicillin-resistant Staphylococcus epidermidis isolate 461/11 after 24 hrs; details: isolate 461/11, 24 h, read-out: MBC99.9
[4] = system: Staphylococcus epidermidis; assay: Bactericidal activity against methicillin-resistant Staphylococcus epidermidis isolate 458/11 after 24 hrs; details: isolate 458/11, 24 h, read-out: MBC99.9
[5] = system: Staphylococcus aureus; assay: Antimicrobial activity against Staphylococcus aureus NCTC 4163 after 18 hrs by twofold serial broth dilution method; details: NCTC 4163, 18 h
[6] = system: Staphylococcus epidermidis; assay: Bactericidal activity against Staphylococcus epidermidis ATCC 12228 after 24 hrs; details: ATCC 12228, 24 h, read-out: MBC99.9
[7] = system: Pseudomonas aeruginosa; assay: Antimicrobial activity against Pseudomonas aeruginosa ATCC 27853 after 18 hrs by twofold serial broth dilution method; details: ATCC 27853, 18 h
[8] = system: Staphylococcus epidermidis; assay: Bactericidal activity against methicillin-resistant Staphylococcus epidermidis isolate 457/11 after 24 hrs; details: isolate 457/11, 24 h, read-out: MBC99.9
[9] = system: Staphylococcus aureus; assay: Bactericidal activity against Staphylococcus aureus NCTC 4163 after 24 hrs; details: NCTC 4163, 24 h, read-out: MBC99.9
[10] = system: Staphylococcus epidermidis; assay: Bactericidal activity against methicillin-resistant Staphylococcus epidermidis isolate 407/10 after 24 hrs; details: isolate 407/10, 24 h, read-out: MBC99.9
[11] = system: Staphylococcus epidermidis; assay: Antimicrobial activity against methicillin-resistant Staphylococcus epidermidis isolate 460/11 after 18 hrs by twofold serial broth dilution method; details: isolate 460/11, 18 h
[12] = system: Staphylococcus epidermidis; assay: Bactericidal activity against methicillin-resistant Staphylococcus epidermidis isolate 459/11 after 24 hrs; details: isolate 459/11, 24 h, read-out: MBC99.9
[13] = system: Pseudomonas aeruginosa; assay: Bactericidal activity against Pseudomonas aeruginosa NCTC 6749 after 24 hrs; details: NCTC 6749, 24 h, read-out: MBC99.9
[14] = system: Staphylococcus epidermidis; assay: Antimicrobial activity against methicillin-resistant Staphylococcus epidermidis isolate 407/10 after 18 hrs by twofold serial broth dilution method; details: isolate 407/10, 18 h
[15] = system: Staphylococcus epidermidis; assay: Antimicrobial activity against methicillin-resistant Staphylococcus epidermidis isolate 458/11 after 18 hrs by twofold serial broth dilution method; details: isolate 458/11, 18 h
[16] = system: Staphylococcus epidermidis; assay: Antimicrobial activity against Staphylococcus epidermidis ATCC 12228 after 18 hrs by twofold serial broth dilution method; details: ATCC 12228, 18 h
[17] = system: Staphylococcus epidermidis; assay: Ratio of ciprofloxacin MIC to compound MIC for methicillin-resistant Staphylococcus epidermidis clinical isolate after 18 hrs by twofold serial broth dilution method

SMILES | MBC [1] [µg/mL] | MIC [2] [µg/mL] | MBC [3] [µg/mL] | MBC [4] [µg/mL] | MIC [5] [µg/mL] | MBC [6] [µg/mL] | MIC [7] [µg/mL] | MBC [8] [µg/mL] | MBC [9] [µg/mL] | MBC [10] [µg/mL] | MIC [11] [µg/mL] | MBC [12] [µg/mL] | MBC [13] [µg/mL] | MIC [14] [µg/mL] | MIC [15] [µg/mL] | MIC [16] [µg/mL] | Ratio [17]
CCCCCCCCN(CCCCCCCC)C(=O)[C@H](CC)[C@H]1CC[C@H](C)[C@H]([C@@H](C)[C@H](O)[C@H](C)C(=O)[C@H](CC)[C@H]2O[C@]3(C=C[C@@H](O)[C@]4(CC[C@@](C)([C@H]5CC[C@](O)(CC)[C@H](C)O5)O4)O3)[C@H](C)C[C@@H]2C)O1 | > 256 | > 256 | > 256 | > 256 | 256 (≈ 263 µM) | > 256 | > 256 | > 256 | > 256 | > 256 | 256 (≈ 263 µM) | > 256 | > 256 | 256 (≈ 263 µM) | 256 (≈ 263 µM) | 128 (≈ 131 µM) | –
CC[C@@H](C(=O)[C@@H](C)[C@@H](O)[C@H](C)[C@@H]1O[C@@H]([C@@H](CC)C(=O)N(Cc2ccccc2)Cc2ccccc2)CC[C@@H]1C)[C@H]1O[C@]2(C=C[C@@H](O)[C@]3(CC[C@@](C)([C@H]4CC[C@](O)(CC)[C@H](C)O4)O3)O2)[C@H](C)C[C@@H]1C | > 256 | > 256 | > 256 | > 256 | 16 (≈ 17.2 µM) | 256 (≈ 275 µM) | > 256 | 256 (≈ 275 µM) | 256 (≈ 275 µM) | 256 (≈ 275 µM) | 32 (≈ 34.4 µM) | 256 (≈ 275 µM) | > 256 | 16 (≈ 17.2 µM) | 16 (≈ 17.2 µM) | 16 (≈ 17.2 µM) | –
CCCN(CCC)C(=O)[C@H](CC)[C@H]1CC[C@H](C)[C@H]([C@@H](C)[C@H](O)[C@H](C)C(=O)[C@H](CC)[C@H]2O[C@]3(C=C[C@@H](O)[C@]4(CC[C@@](C)([C@H]5CC[C@](O)(CC)[C@H](C)O5)O4)O3)[C@H](C)C[C@@H]2C)O1 | 256 (≈ 307 µM) | > 256 | 128 (≈ 153 µM) | 256 (≈ 307 µM) | 2 (≈ 2.4 µM) | 256 (≈ 307 µM) | > 256 | 256 (≈ 307 µM) | > 256 | 256 (≈ 307 µM) | 8 (≈ 9.59 µM) | 128 (≈ 153 µM) | > 256 | 4 (≈ 4.8 µM) | 8 (≈ 9.59 µM) | 2 (≈ 2.4 µM) | 40
CC[C@@H](C(=O)[C@@H](C)[C@@H](O)[C@H](C)[C@@H]1O[C@@H]([C@@H](CC)C(=O)N(CCOC)CCOC)CC[C@@H]1C)[C@H]1O[C@]2(C=C[C@@H](O)[C@]3(CC[C@@](C)([C@H]4CC[C@](O)(CC)[C@H](C)O4)O3)O2)[C@H](C)C[C@@H]1C | > 256 | > 256 | > 256 | > 256 | 64 (≈ 73.9 µM) | > 256 | > 256 | > 256 | > 256 | > 256 | 128 (≈ 148 µM) | > 256 | > 256 | 128 (≈ 148 µM) | 64 (≈ 73.9 µM) | 128 (≈ 148 µM) | –
CC[C@@H](C(=O)[C@@H](C)[C@@H](O)[C@H](C)[C@@H]1O[C@@H]([C@@H](CC)C(=O)N2CCNCC2)CC[C@@H]1C)[C@H]1O[C@]2(C=C[C@@H](O)[C@]3(CC[C@@](C)([C@H]4CC[C@](O)(CC)[C@H](C)O4)O3)O2)[C@H](C)C[C@@H]1C | > 256 | > 256 | > 256 | > 256 | 128 (≈ 156 µM) | > 256 | > 256 | > 256 | > 256 | > 256 | 128 (≈ 156 µM) | > 256 | > 256 | 128 (≈ 156 µM) | 128 (≈ 156 µM) | 128 (≈ 156 µM) | –
CC[C@@H](C(=O)[C@@H](C)[C@@H](O)[C@H](C)[C@@H]1O[C@@H]([C@@H](CC)C(=O)N2CCOCC2)CC[C@@H]1C)[C@H]1O[C@]2(C=C[C@@H](O)[C@]3(CC[C@@](C)([C@H]4CC[C@](O)(CC)[C@H](C)O4)O3)O2)[C@H](C)C[C@@H]1C | > 256 | 256 (≈ 312 µM) | > 256 | > 256 | 256 (≈ 312 µM) | > 256 | 256 (≈ 312 µM) | > 256 | > 256 | > 256 | 256 (≈ 312 µM) | > 256 | > 256 | > 256 | 256 (≈ 312 µM) | 128 (≈ 156 µM) | –
CCCCN(CCCC)C(=O)[C@H](CC)[C@H]1CC[C@H](C)[C@H]([C@@H](C)[C@H](O)[C@H](C)C(=O)[C@H](CC)[C@H]2O[C@]3(C=C[C@@H](O)[C@]4(CC[C@@](C)([C@H]5CC[C@](O)(CC)[C@H](C)O5)O4)O3)[C@H](C)C[C@@H]2C)O1 | > 256 | > 256 | > 256 | 256 (≈ 297 µM) | 8 (≈ 9.28 µM) | > 256 | > 256 | 256 (≈ 297 µM) | > 256 | 256 (≈ 297 µM) | 8 (≈ 9.28 µM) | 256 (≈ 297 µM) | > 256 | 8 (≈ 9.28 µM) | 4 (≈ 4.64 µM) | 8 (≈ 9.28 µM) | –
CC[C@@H](C(=O)[C@@H](C)[C@@H](O)[C@H](C)[C@@H]1O[C@@H]([C@@H](CC)C(=O)N(CC)CC)CC[C@@H]1C)[C@H]1O[C@]2(C=C[C@@H](O)[C@]3(CC[C@@](C)([C@H]4CC[C@](O)(CC)[C@H](C)O4)O3)O2)[C@H](C)C[C@@H]1C | 128 (≈ 159 µM) | > 256 | 128 (≈ 159 µM) | 128 (≈ 159 µM) | 4 (≈ 4.96 µM) | 64 (≈ 79.4 µM) | > 256 | 128 (≈ 159 µM) | 64 (≈ 79.4 µM) | 128 (≈ 159 µM) | 8 (≈ 9.92 µM) | 256 (≈ 318 µM) | > 256 | 4 (≈ 4.96 µM) | 4 (≈ 4.96 µM) | 2 (≈ 2.48 µM) | 40
CC[C@@H](C(=O)[C@@H](C)[C@@H](O)[C@H](C)[C@@H]1O[C@@H]([C@@H](CC)C(=O)N(CCO)CCO)CC[C@@H]1C)[C@H]1O[C@]2(C=C[C@@H](O)[C@]3(CC[C@@](C)([C@H]4CC[C@](O)(CC)[C@H](C)O4)O3)O2)[C@H](C)C[C@@H]1C | 256 (≈ 305 µM) | > 256 | 128 (≈ 153 µM) | 128 (≈ 153 µM) | 4 (≈ 4.77 µM) | 256 (≈ 305 µM) | > 256 | 256 (≈ 305 µM) | 256 (≈ 305 µM) | 128 (≈ 153 µM) | 4 (≈ 4.77 µM) | 256 (≈ 305 µM) | > 256 | 4 (≈ 4.77 µM) | 4 (≈ 4.77 µM) | 4 (≈ 4.77 µM) | 40
